# Measurements taken from article PMC4867616, “Imaging of Cerebral Amyloid Angiopathy with Bivalent ^99mTc-Hydroxamamide Complexes” (Scientific Reports, 2016).
# “And” between values parts separate entries of the source, which are not always exact repeats. Equal values may be shown once.
# Assay: Ex vivo biodistribution in normal mice
# Parameters: species or system ddY mice
# Conditions: i.v., mean (SD), 5 animals
# Method: To evaluate brain uptake of ^99mTc-Ham complexes, biodistribution experiments of ^99mTc-Ham complexes were performed in normal mice. We selected ^18F-florbetapir as a control and compared the results of ^99mTc-Ham complexes with that of ^18F-florbetapir (Fig. 2). The brain uptake of [^99mTc]SB1A, [^99mTc]SB2A, [^99mTc]BT1B, and [^99mTc]BT2B at 2 min postinjection was 0.37, 0.28, 0.36, and 0.37% injected dose (ID)/g, respectively. The radioactivity in the brains remained low until 60 min postinjection. The results of the biodistribution study are shown in Table S1 in Supplementary information.
# A saline solution (100 μL) of ^99mTc-Ham complexes (20 kBq) containing EtOH (10 μL) was injected directly into the tail vein of ddY mice (male, 5 weeks old). The mice were sacrificed at 2, 10, 30, and 60 min postinjection. The organs of interest were removed and weighed, and radioactivity was measured using a γ counter (PerkinElmer). The %ID/g of samples was calculated by comparing the sample counts with the count of the diluted initial dose.
# *Corresponding author: M. Ono. Address: 46-29 Yoshida Shimoadachi-cho, Sakyo-ku, Kyoto 606-8501, Japan, Phone: +81-75-753-4608, Fax: +81-75-753-4568, E-mail: ono@pharm.kyoto-u.ac.jp. Ex vivo biodistribution in normal mice. A saline solution (100 μL) of ^99mTc-Ham complexes (20 kBq) containing EtOH (10 μL) was injected directly into the tail vein of ddY mice (male, 5 weeks old). The mice were sacrificed at 2, 10, 30, and 60 min postinjection. The organs of interest were removed and weighed, and radioactivity was measured using a γ counter (Wallac 1470 Wizard; PerkinElmer, Massachusetts, USA). Percentage dose per organ was calculated by comparing the tissue counts to suitably diluted aliquots of the injected material. The %dose/g of samples was calculated by comparing the sample counts with the count of the diluted initial dose.
"Biodistribution of radioactivity, Heart (2 min after injection)","Biodistribution of radioactivity, Intestine (2 min after injection)","Biodistribution of radioactivity, Kidney (2 min after injection)","Biodistribution of radioactivity, Liver (2 min after injection)","Biodistribution of radioactivity, Lung (2 min after injection)","Biodistribution of radioactivity, Pancreas (2 min after injection)","Biodistribution of radioactivity, Spleen (2 min after injection)","Biodistribution of radioactivity, Stomach (2 min after injection)","Biodistribution of radioactivity, Heart (10 min after injection)","Biodistribution of radioactivity, Intestine (10 min after injection)","Biodistribution of radioactivity, Kidney (10 min after injection)","Biodistribution of radioactivity, Liver (10 min after injection)","Biodistribution of radioactivity, Lung (10 min after injection)","Biodistribution of radioactivity, Pancreas (10 min after injection)","Biodistribution of radioactivity, Spleen (10 min after injection)","Biodistribution of radioactivity, Stomach (10 min after injection)","Biodistribution of radioactivity, Heart (30 min after injection)","Biodistribution of radioactivity, Intestine (30 min after injection)","Biodistribution of radioactivity, Kidney (30 min after injection)","Biodistribution of radioactivity, Liver (30 min after injection)",SMILES,further results
12.64 (1.59) % injected dose per gram,1.52 (0.25) % injected dose per gram,5.03 (0.52) % injected dose per gram,25.52 (1.67) % injected dose per gram,14.35 (1.86) % injected dose per gram,3.35 (0.60) % injected dose per gram,10.76 (0.96) % injected dose per gram,3.15 (0.56) % injected dose per organ,6.57 (0.92) % injected dose per gram,1.71 (0.11) % injected dose per gram,3.57 (0.41) % injected dose per gram,29.35 (2.85) % injected dose per gram,7.79 (0.50) % injected dose per gram,2.12 (0.08) % injected dose per gram,11.24 (2.26) % injected dose per gram,8.78 (1.32) % injected dose per organ,8.58 (1.32) % injected dose per gram,2.64 (0.36) % injected dose per gram,3.61 (0.29) % injected dose per gram,27.04 (3.90) % injected dose per gram,"CN(C)c1ccc(/C=C/c2ccc(C3=N[O][99Tc-]4(=[O])([NH]3)[NH2+]C(c3ccc(/C=C/c5ccc(N(C)C)cc5)cc3)=N[O]4)cc2)cc1 (single isomer, unassigned) [[^99mTc]SB2A]","Biodistribution of radioactivity, Lung (30 min after injection): 7.26 (1.02) % injected dose per gram; Biodistribution of radioactivity, Pancreas (30 min after injection): 2.06 (0.11) % injected dose per gram; Biodistribution of radioactivity, Spleen (30 min after injection): 8.91 (3.26) % injected dose per gram; Biodistribution of radioactivity, Stomach (30 min after injection): 16.13 (2.33) % injected dose per organ; Biodistribution of radioactivity, Heart (60 min after injection): 8.27 (1.19) % injected dose per gram; Biodistribution of radioactivity, Intestine (60 min after injection): 4.05 (0.55) % injected dose per gram; Biodistribution of radioactivity, Kidney (60 min after injection): 3.39 (0.20) % injected dose per gram; Biodistribution of radioactivity, Liver (60 min after injection): 24.95 (3.38) % injected dose per gram; Biodistribution of radioactivity, Lung (60 min after injection): 6.48 (0.49) % injected dose per gram; Biodistribution of radioactivity, Pancreas (60 min after injection): 1.83 (0.07) % injected dose per gram; Biodistribution of radioactivity, Spleen (60 min after injection): 7.58 (2.60) % injected dose per gram; Biodistribution of radioactivity, Stomach (60 min after injection): 14.72 (4.51) % injected dose per organ"
9.48 (4.83) % injected dose per gram,1.32 (0.21) % injected dose per gram,6.04 (0.96) % injected dose per gram,23.21 (5.72) % injected dose per gram,22.06 (3.09) % injected dose per gram,2.81 (0.35) % injected dose per gram,10.83 (1.58) % injected dose per gram,0.69 (0.12) % injected dose per organ,8.62 (2.34) % injected dose per gram,1.97 (0.26) % injected dose per gram,5.02 (0.40) % injected dose per gram,33.78 (6.07) % injected dose per gram,11.97 (1.01) % injected dose per gram,2.19 (0.35) % injected dose per gram,14.49 (3.50) % injected dose per gram,3.77 (0.56) % injected dose per organ,6.67 (1.52) % injected dose per gram,6.44 (1.04) % injected dose per gram,3.47 (0.57) % injected dose per gram,31.45 (3.39) % injected dose per gram,CN(C)c1ccc(-c2nc3ccc(C4=N[O][99Tc-]5(=[O])([NH]4)[NH2+]C(c4ccc6nc(-c7ccc(N(C)C)cc7)sc6c4)=N[O]5)cc3s2)cc1 [[^99mTc]BT2B],"Biodistribution of radioactivity, Blood (2 min after injection): 23.15 (4.78) % injected dose per gram; Biodistribution of radioactivity, Brain (2 min after injection): 0.37 % injected dose per gram and 0.37 (0.11) % injected dose per gram; Biodistribution of radioactivity, Blood (10 min after injection): 10.05 (1.78) % injected dose per gram; Biodistribution of radioactivity, Brain (10 min after injection): 0.20 (0.04) % injected dose per gram; Biodistribution of radioactivity, Blood (30 min after injection): 3.72 (0.49) % injected dose per gram; Biodistribution of radioactivity, Brain (30 min after injection): 0.10 (0.02) % injected dose per gram; Biodistribution of radioactivity, Lung (30 min after injection): 5.38 (1.16) % injected dose per gram; Biodistribution of radioactivity, Pancreas (30 min after injection): 1.14 (0.25) % injected dose per gram; Biodistribution of radioactivity, Spleen (30 min after injection): 10.91 (1.59) % injected dose per gram; Biodistribution of radioactivity, Stomach (30 min after injection): 6.47 (1.37) % injected dose per organ; Biodistribution of radioactivity, Blood (60 min after injection): 1.81 (0.44) % injected dose per gram; Biodistribution of radioactivity, Brain (60 min after injection): 0.05 (0.01) % injected dose per gram; Biodistribution of radioactivity, Heart (60 min after injection): 7.08 (1.34) % injected dose per gram; Biodistribution of radioactivity, Intestine (60 min after injection): 13.90 (1.52) % injected dose per gram; Biodistribution of radioactivity, Kidney (60 min after injection): 3.13 (0.48) % injected dose per gram; Biodistribution of radioactivity, Liver (60 min after injection): 35.76 (3.34) % injected dose per gram; Biodistribution of radioactivity, Lung (60 min after injection): 4.50 (0.60) % injected dose per gram; Biodistribution of radioactivity, Pancreas (60 min after injection): 1.27 (0.28) % injected dose per gram; Biodistribution of radioactivity, Spleen (60 min after injection): 4.80 (0.63) % injected dose per gram; Biodistribution of radioactivity, Stomach (60 min after injection): 4.20 (1.21) % injected dose per organ"
